Assay [1] relates to Sweetpotato Whitefly-Crawler (Bemisia Tabaci). In words: Insecticidal test for sweetpotato whitefly-crawler in foliar spray assay (col. BEMITA). It counts as in vivo. The conditions noted are these: for pest or weed control at 200 ppm: Bemisia tabaci, read-out: BEMITA 200 ppm (Corrected % Control, rating). A digest of the protocol:
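Percent control, Abbott-corrected against diluent-sprayed plants, from microscope counts of live nymphs 8-9 days after treatment. Test solution at 200 ppm in 0.025% aqueous Tween 20 applied to both leaf sides of egg-infested cotton after a 5-6 day hatch period (82° F, 50% RH).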

The subject of assay [2] is Green Peach Aphid (Myzus Persicae). In words: Insecticidal test for green peach aphid in foliar spray assay (col. MYZUPE). The conditions noted are these: for pest or weed control at 200 ppm: Myzus persicae, 72 h, read-out: MYZUPE 200 ppm (Corrected % Control, rating). In kind it is in vivo. In a few lines:
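Corrected % control derives from microscope counts of live aphids per plant, treated against diluent-only checks, 3 days after foliar spraying at ~25 °C and 40% RH. Test solution was 200 ppm in 0.025% aqueous Tween 20, applied to both leaf sides of infested cabbage seedlings, four pots each.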

Where two headings read alike, the source gives them in different places.

As for `CCN(C(=O)c1cccs1)c1sc(-c2cccnc2)nc1Cl` [Compound 554], the pest or weed control at 200 ppm in assay [1] (Abbott's correction formula) and in assay [2] (Abbott's correction formula) was below 80% throughout.
`Cc1nc(-c2cccnc2)sc1N(C)C(=O)CN(C)C(=O)C(C)n1cccn1` (stereo not shown) [Compound 430]: the pest or weed control at 200 ppm in assay [1] (Abbott's correction formula) is below 80%; in assay [2] (Abbott's correction formula), 80 to 100%.
As for `CCSCCC(=O)N(CC)c1sc(-c2cccnc2)nc1C` [Compound 322], the pest or weed control at 200 ppm in assay [1] (sweetpotato whitefly-crawler) is below 80%; in assay [2] (green peach aphid) it was 80 to 100%.
On the same counts, the results for `CC(=O)OC(C)C(=O)Nc1sc(-c2cccnc2)nc1C` (stereo not shown) [Compound 334] are below 80% and 80 to 100%.
`COCCOC(=O)N(C)c1sc(-c2cccnc2)nc1C` [Compound 485]: the pest or weed control at 200 ppm in assay [1] (Abbott's correction formula) and in assay [2] (Abbott's correction formula) was 80 to 100% in each case.
For `CCOC1(N(C(=O)OC(C)(C)C)c2sc(-c3cccnc3)nc2C)CC1` [Compound 518], the results for the pest or weed control at 200 ppm in assay [1] (Abbott's correction formula) and in assay [2] (Abbott's correction formula) were below 80% and 80 to 100%, respectively.
In the case of `Cc1nc(-c2cccnc2)sc1NC(=O)C1=CC(=O)CC(C)(C)O1` [Compound 326], the pest or weed control at 200 ppm in assay [1] (sweetpotato whitefly-crawler) and in assay [2] (green peach aphid) was below 80% each time.
Regarding `CCN(C(=O)C(C)CSC)c1sc(-c2cncc(F)c2)nc1F` (stereo not shown) [Compound 456], the pest or weed control at 200 ppm in assay [1] (Abbott's correction formula) was below 80%; in assay [2] (Abbott's correction formula) it was 80 to 100%.
As to `CSCC(C)C(=O)N(C(=O)C(C)C)c1sc(-c2cncc(S(C)(=O)=O)c2)nc1C` (stereo not shown) [Compound 152], the pest or weed control at 200 ppm in assay [1] (sweetpotato whitefly-crawler) and in assay [2] (green peach aphid) was below 80% each time.
For `CN(C(=O)c1ccc([S+](C)[O-])cc1)c1sc(-c2cccnc2)nc1Cl` (stereo not shown) [Compound 403], the “BEMITA 200 ppm (Corrected % Control, rating)” value in assay [1] (sweetpotato whitefly-crawler) is given as “B (Less than 80)”. Further, in assay [2] (green peach aphid), the “MYZUPE 200 ppm (Corrected % Control, rating)” value is reported as “A (80-100)”.
With `CCc1nc(-c2cccnc2)sc1N(C)C(=O)CCSC` [Compound 47], the pest or weed control at 200 ppm in assay [1] (sweetpotato whitefly-crawler) and in assay [2] (green peach aphid) was 80 to 100% in each case.
Turning to `COC(=O)CCC(=O)N(C(=O)C(C)CSC)c1sc(-c2cccnc2)nc1C` (stereo not shown) [Compound 189], the pest or weed control at 200 ppm in assay [1] (sweetpotato whitefly-crawler) and in assay [2] (green peach aphid) was 80 to 100% each time.
Take `CSCCC(=O)N(C)c1sc(-c2cncnc2)nc1C` [Compound 51]: the pest or weed control at 200 ppm in assay [1] (sweetpotato whitefly-crawler) and in assay [2] (green peach aphid) was 80 to 100% in each case.
Turning to `CC(=O)OC(C)C(=O)N(C)c1sc(-c2cccnc2)nc1C` (stereo not shown) [Compound 335], the “BEMITA 200 ppm (Corrected % Control, rating)” value in assay [1] (sweetpotato whitefly-crawler) is listed as “A (80-100)”. The “MYZUPE 200 ppm (Corrected % Control, rating)” value in assay [2] (green peach aphid) was “A (80-100)”.
For `CSCC(C)C(=O)Nc1sc(-c2cncc(F)c2)nc1Cl` (stereo not shown) [Compound 364], the pest or weed control at 200 ppm in assay [1] (sweetpotato whitefly-crawler) and in assay [2] (green peach aphid) was 80 to 100% each time.
Turning to `CSCC(C)C(=O)N(C)c1sc(-c2cncc(F)c2)nc1Br` (stereo not shown) [Compound 354], the pest or weed control at 200 ppm in assay [1] (sweetpotato whitefly-crawler) and in assay [2] (green peach aphid) was 80 to 100% each time.
For `Cc1nc(-c2cccnc2)sc1N(C(=O)OC(C)(C)C)C(C)C` [Compound 13, Isopropyl-(4-methyl-2-pyridin-3-yl-thiazol-5-yl)-carbamic acid tert-butyl ester], the pest or weed control at 200 ppm in assay [1] (sweetpotato whitefly-crawler) and in assay [2] (green peach aphid) was 80 to 100% in each case.
For `CCOC(=O)C(C)C(=O)N(C)c1sc(-c2cccnc2)nc1C` (stereo not shown) [Compound 232], the values for the pest or weed control at 200 ppm in assay [1] (sweetpotato whitefly-crawler) and in assay [2] (green peach aphid) were 80 to 100% and below 80%, respectively.
For the compound `CSCC(C)C(=O)N(COC(=O)c1ccccc1)c1sc(-c2cccnc2)nc1C` (stereo not shown) [Compound 203, Benzoic acid [(2-methyl-3-methylsulfanyl-propionyl)-(4-methyl-2-pyridin-3-yl-thiazol-5-yl)-amino]-methyl ester], the pest or weed control at 200 ppm in assay [1] (sweetpotato whitefly-crawler) and in assay [2] (green peach aphid) was 80 to 100% each time.
As for `CCN(C(=O)C(C)(C)CS(C)(=O)=O)c1sc(-c2cncc(F)c2)nc1C` [Compound 261], in assay [1] (sweetpotato whitefly-crawler), the “BEMITA 200 ppm (Corrected % Control, rating)” value is “A (80-100)”. Besides, in assay [2] (green peach aphid), the “MYZUPE 200 ppm (Corrected % Control, rating)” value is “A (80-100)”.
Regarding `CCN(C(=O)CC(C)SC)c1sc(-c2cccnc2)nc1Br` (stereo not shown) [Compound 480], the pest or weed control at 200 ppm in assay [1] (Abbott's correction formula) and in assay [2] (Abbott's correction formula) was 80 to 100% in each case.
Consider `Cc1nc(-c2cncc(F)c2)sc1N(C)C(=O)CC(C)[S+](C)[O-]` (stereo not shown) [Compound 285], for which the pest or weed control at 200 ppm in assay [1] (sweetpotato whitefly-crawler) and in assay [2] (green peach aphid) was 80 to 100% throughout.
With `CSC(C)(C)CC(=O)N(C)c1sc(-c2cncc(F)c2)nc1Cl` [Compound 443], the pest or weed control at 200 ppm in assay [1] (Abbott's correction formula) and in assay [2] (Abbott's correction formula) was 80 to 100% in each case.
Regarding `CSCC(C)C(=O)Nc1sc(-c2cccnc2)nc1Cl` (stereo not shown) [Compound 588], the pest or weed control at 200 ppm in assay [1] (Abbott's correction formula) and in assay [2] (Abbott's correction formula) was 80 to 100% in each case.
`CCSCCC(=O)N(CC)c1sc(-c2cncc(F)c2)nc1C` [Compound 319]: the pest or weed control at 200 ppm in assay [1] (sweetpotato whitefly-crawler) and in assay [2] (green peach aphid) was 80 to 100% in each case.
Regarding `Cc1nc(-c2cccnc2)sc1NC(=O)c1ccns1` [Compound 344], the pest or weed control at 200 ppm in assay [1] (sweetpotato whitefly-crawler) and in assay [2] (green peach aphid) was below 80% in each case.
In the case of `Cc1nc(-c2cncc(F)c2)sc1N(C)C(=O)C(C)CSCc1ccc(Cl)cc1` (stereo not shown) [Compound 190], the pest or weed control at 200 ppm in assay [1] (sweetpotato whitefly-crawler) and in assay [2] (green peach aphid) was 80 to 100% each time.
With `Cc1nc(-c2cncc(F)c2)sc1N(C)C(=O)CC[S+](C)[O-]` (stereo not shown) [Compound 91], the pest or weed control at 200 ppm in assay [1] (sweetpotato whitefly-crawler) and in assay [2] (green peach aphid) was 80 to 100% in each case.
Take `Cc1nc(-c2cccnc2)sc1N1CCCC1=O` [Compound 211]: the pest or weed control at 200 ppm in assay [1] (sweetpotato whitefly-crawler) and in assay [2] (green peach aphid) was 80 to 100% each time.
Turning to `CCN(C(=O)CCSC)c1sc(-c2cccnc2)nc1-c1ccccc1` [Compound 61], the pest or weed control at 200 ppm in assay [1] (sweetpotato whitefly-crawler) and in assay [2] (green peach aphid) was below 80% each time.
Turning to `CSCCCC(=O)N(C)c1sc(-c2cccnc2)nc1C` [Compound 368], the pest or weed control at 200 ppm in assay [1] (sweetpotato whitefly-crawler) and in assay [2] (green peach aphid) was 80 to 100% throughout.
Consider `CN(C(=O)C(F)(F)F)c1sc(-c2cccnc2)nc1-c1ccccc1` [Compound 4, 2,2,2-Trifluoro-N-methyl-N-(4-phenyl-2-pyridin-3-yl-thiazol-5-yl)-acetamide], for which the pest or weed control at 200 ppm in assay [1] (sweetpotato whitefly-crawler) and in assay [2] (green peach aphid) was below 80% each time.
In the case of `Cc1nc(-c2cccnc2)sc1NC(=O)CN(C)C(=O)c1cccs1` [Compound 438], the pest or weed control at 200 ppm in assay [1] (Abbott's correction formula) is below 80%; in assay [2] (Abbott's correction formula), 80 to 100%.
Regarding `CCCCN1CCCC(C(=O)N(C)c2sc(-c3cncc(F)c3)nc2C)C1` (stereo not shown) [Compound 587], the pest or weed control at 200 ppm in assay [1] (Abbott's correction formula) and in assay [2] (Abbott's correction formula) was 80 to 100% throughout.
As to `Cc1nc(-c2cccnc2)sc1N(C)C(=O)c1ccns1` [Compound 345], the “BEMITA 200 ppm (Corrected % Control, rating)” value in assay [1] (sweetpotato whitefly-crawler) is recorded as “A (80-100)”. For the same compound, the “MYZUPE 200 ppm (Corrected % Control, rating)” value in assay [2] (green peach aphid) is “A (80-100)”.
Consider `CSCc1ccc(C(=O)Nc2sc(-c3cccnc3)nc2C)o1` [Compound 408], for which the pest or weed control at 200 ppm in assay [1] (sweetpotato whitefly-crawler) and in assay [2] (green peach aphid) was 80 to 100% each time.
Turning to `COc1cncc(-c2nc(Cl)c(N(C)C(=O)CCSC)s2)c1` [Compound 513], the pest or weed control at 200 ppm in assay [1] (Abbott's correction formula) and in assay [2] (Abbott's correction formula) was below 80% in each case.
As to `CN(C(=O)C(C)(C)C[S+](C)[O-])c1sc(-c2cccnc2)nc1Cl` (stereo not shown) [Compound 269], the pest or weed control at 200 ppm in assay [1] (sweetpotato whitefly-crawler) and in assay [2] (green peach aphid) was 80 to 100% throughout.
`CSCCC(=O)N(C)c1sc(-c2cncc(F)c2)nc1C` [Compound 38]: the pest or weed control at 200 ppm in assay [1] (sweetpotato whitefly-crawler) and in assay [2] (green peach aphid) was 80 to 100% throughout.
Regarding `CCCC(C)C(=O)N1CCCC(C(=O)N(C)c2sc(-c3cncc(F)c3)nc2C)C1` (stereo not shown) [Compound 582, 1-(2-methyl-pentanoyl)-piperidine-3-carboxylic acid [2-(5-fluoro-pyridin-3-yl)-4-methyl-thiazol-5-yl]-methyl-amide], the pest or weed control at 200 ppm in assay [1] (Abbott's correction formula) and in assay [2] (Abbott's correction formula) was 80 to 100% throughout.
Turning to `CCN(C(=O)C(C)C[S+](C)[O-])c1sc(-c2cncc(F)c2)nc1C` (stereo not shown) [Compound 258], the pest or weed control at 200 ppm in assay [1] (sweetpotato whitefly-crawler) and in assay [2] (green peach aphid) was 80 to 100% each time.
Regarding `CSCC(C)C(=O)N(CC1CC1)c1sc(-c2cccnc2)nc1C` (stereo not shown) [Compound 468], the pest or weed control at 200 ppm in assay [1] (Abbott's correction formula) was below 80%; in assay [2] (Abbott's correction formula), 80 to 100%.
Consider `CCS(=O)(=O)N1CCCC(C(=O)N(C)c2sc(-c3cccnc3)nc2Cl)C1` (stereo not shown) [Compound 394], for which the pest or weed control at 200 ppm in assay [1] (sweetpotato whitefly-crawler) and in assay [2] (green peach aphid) was 80 to 100% each time.
`Cc1nc(-c2cccnc2)sc1N(C)C(=O)c1ccc([S+](C)[O-])cc1` (stereo not shown) [Compound 402]: the “BEMITA 200 ppm (Corrected % Control, rating)” value in assay [1] (sweetpotato whitefly-crawler) is given as “A (80-100)”. Besides, the “MYZUPE 200 ppm (Corrected % Control, rating)” value in assay [2] (green peach aphid) is reported as “A (80-100)”.
`CCOC(=O)N1CCCC(C(=O)N(C)c2sc(-c3cncc(F)c3)nc2C)C1` (stereo not shown) [Compound 586]: the pest or weed control at 200 ppm in assay [1] (Abbott's correction formula) and in assay [2] (Abbott's correction formula) was 80 to 100% each time.
With `Cc1nc(-c2cncc(F)c2)sc1N(C)C(=O)C1CCCN(C(=O)CC(F)(F)F)C1` (stereo not shown) [Compound 584], the pest or weed control at 200 ppm in assay [1] (Abbott's correction formula) and in assay [2] (Abbott's correction formula) was below 80% throughout.
As for `CC(=O)c1ccc(C(=O)N(C)c2sc(-c3cccnc3)nc2C)s1` [Compound 350], the pest or weed control at 200 ppm in assay [1] (sweetpotato whitefly-crawler) and in assay [2] (green peach aphid) was below 80% throughout.

Values taken from patent publication US8853246B2 (Dow AgroSciences LLC, priority 2009, dated 2014).
